What was measured:
[1] = system: natural resident bacteria of industrial grade urea, not inoculated; assay: Example 3 preservation efficacy: H60 slurry with industrial grade urea solution, not inoculated, TVC; type: cell-based; details: industrial grade urea 5.5%, calcium carbonate 69%, water 25.5% w/w, inoculum none, 30° C.
Protocol: All quoted bacterial counts (Total viable counts (TVC) values), unless otherwise indicated, are given in cfu/ml and determined after at least 2 days following plate-out and incubation at 30° C. and in accordance with the counting method described in “Bestimmung von aerobe mesophilen Keimen”, Schweizerisches Lebensmittelbuch, chapter 56, section 7.01, edition of 1985, revised version of 1988.
Unless otherwise stated, per tryptic soy agar plate (TSA, prepared using BD 236950) 0.1 ml of a solution or suspension is plated. Counts from 10000 cfu/ml to 99999 cfu/ml are reported as >1E4 cfu/ml. Counts from 100000 cfu/ml to 999999 cfu/ml are reported as >1E5 cfu/ml. Counts above 1000000 cfu/ml are reported as >1E6 cfu/ml.
50 g sterile calcium carbonate slurry (H60) with a solid content of 77.3 wt.-%, based on the total weight of the H60 slurry is supplemented with industrial grade 50% (w/w) urea solution (Yara Canda Inc.) or water to different final concentrations. The industrial grade contained natural resident (i.e. bacteria in a non-growing state) bacteria. The bacterial of the industrial urea burden is 5 cfu/3 ml as determined by TVC. The species are identified by characterizing the grown colonies from the TVC by 16 S RNA sequencing, known to the person skilled in the art.
The species identified are Sporosarcina koreensis, (Gram positive, urease positive, spore forming), Paenibacillus sp., (Gram positive, urease positive, spore forming) and Halobacillus trueperi (Gram positive, urease negative, spore forming).
The samples are further artificially inoculated with 1 ml non-sterile calcium carbonate slurry (H60), 1 ml non-sterile calcium carbonate slurry (H90), 0.02 ml overnight culture of Escherichia coli (DSMZ 46295) and 0.02 ml overnight culture Pseudomonas putida. The control sample are not inoculated. […]

[2] = Example 5: addition of dry urea to H60 slurry, viscosity and stability of the product; type: physicochemical; details: 2.68 wt.-% urea and 73 wt.-% calcium carbonate
Protocol: The Brookfield viscosity is measured by a Brookfield DV-III Ultra viscometer at 20° C.±3° C. at 100 rpm using an LV-3 spindle and is specified in mPa·s. Once the spindle has been inserted into the sample, the measurement is started with a constant rotating speed of 100 rpm.
1 kg calcium carbonate slurry (H60) with a solid content of 75 wt.-%, based on the total weight of the H60 slurry is stirred at approximately 500 rotations per minute (rpm) and 27.5 g dry urea is added slowly during agitation, leading to 2.68 wt.-% urea and 73 wt.-% calcium carbonate, based on the total weight of the obtained slurry. The blend is further mixed for 30 minutes at slow speed (<500 rpm).

NC(N)=O [urea]
TVC cfu/ml Day 4 [1]: <100 cfu/ml
TVC cfu/ml Day 8 [1]: 100 cfu/ml
TVC cfu/ml Day 11 [1]: <100 cfu/ml
TVC cfu/ml Day 13 [1]: <100 cfu/ml
TVC cfu/ml Day 1 ([1]; detection limit 100 cfu/ml): <100 cfu/ml
formation of clumps after addition of dry urea [2]: No clumps were formed
viscosity after addition of dry urea [2]: does not increase
stability of the product ([2]; 7 days at room temperature and 40° C.): remains stable

Source: patent publication US20220220041A1, “USE OF UREA AS AN ANTIMICROBIAL ADDITIVE IN AN AQUEOUS SUSPENSION” (Omya International AG, priority 2019, published 2022)
